In this experiment the target is T1, purified bovine lung sGC (Bos taurus, UniProt P16068+P19687).
T1 construct: screened at 100 μM against purified bovine lung sGC; purchased Enzo lifesciences ALX-202-039-C005; host or cells: bovine lung
T1 sequence (P19687 1-691): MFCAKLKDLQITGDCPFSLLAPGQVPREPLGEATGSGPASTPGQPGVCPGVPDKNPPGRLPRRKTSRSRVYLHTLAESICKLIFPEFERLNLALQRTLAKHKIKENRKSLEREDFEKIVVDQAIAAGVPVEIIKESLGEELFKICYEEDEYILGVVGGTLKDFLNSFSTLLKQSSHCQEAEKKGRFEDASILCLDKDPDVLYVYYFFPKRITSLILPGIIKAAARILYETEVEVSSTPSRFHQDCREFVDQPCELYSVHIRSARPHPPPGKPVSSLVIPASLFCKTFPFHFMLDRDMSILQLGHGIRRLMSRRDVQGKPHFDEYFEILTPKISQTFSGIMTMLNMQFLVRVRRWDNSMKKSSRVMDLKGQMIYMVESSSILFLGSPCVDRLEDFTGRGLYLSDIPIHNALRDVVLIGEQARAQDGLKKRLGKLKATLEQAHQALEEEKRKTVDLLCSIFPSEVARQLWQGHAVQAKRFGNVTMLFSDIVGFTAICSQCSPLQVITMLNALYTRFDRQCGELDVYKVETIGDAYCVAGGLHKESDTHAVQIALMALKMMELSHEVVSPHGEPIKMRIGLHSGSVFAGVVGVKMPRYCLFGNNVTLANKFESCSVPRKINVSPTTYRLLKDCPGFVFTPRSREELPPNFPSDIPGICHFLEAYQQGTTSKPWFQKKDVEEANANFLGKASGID
T1 sequence (P16068 1-619): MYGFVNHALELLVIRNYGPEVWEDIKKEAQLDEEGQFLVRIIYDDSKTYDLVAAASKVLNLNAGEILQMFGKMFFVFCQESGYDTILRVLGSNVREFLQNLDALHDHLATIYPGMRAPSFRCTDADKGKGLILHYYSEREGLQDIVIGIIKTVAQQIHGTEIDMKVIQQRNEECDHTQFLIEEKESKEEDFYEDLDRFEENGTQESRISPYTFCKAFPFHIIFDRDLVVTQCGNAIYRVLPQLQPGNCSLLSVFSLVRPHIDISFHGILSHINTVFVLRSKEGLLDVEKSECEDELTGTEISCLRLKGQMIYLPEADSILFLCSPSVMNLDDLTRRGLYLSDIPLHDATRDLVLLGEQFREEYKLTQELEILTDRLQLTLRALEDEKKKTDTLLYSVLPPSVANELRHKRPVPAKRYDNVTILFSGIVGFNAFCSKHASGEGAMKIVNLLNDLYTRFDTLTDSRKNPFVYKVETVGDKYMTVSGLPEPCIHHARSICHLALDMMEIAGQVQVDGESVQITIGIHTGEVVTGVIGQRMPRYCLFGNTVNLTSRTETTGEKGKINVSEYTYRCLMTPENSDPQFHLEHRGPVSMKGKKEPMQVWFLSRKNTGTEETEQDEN
The experiment can be described thus: Soluble guanylate cyclase activity assay (cGMP radioimmunoassay). The class given is biochemical. As to the method: Virtual screening was performed by similarity searches using MACCS fingerprints at 85% and 75% Tanimoto of commercial libraries and the selected compounds were screened at 100 μM against purified bovine lung sGC using diethylamine NONOate (30 nM) as the NO donor. Enzyme activity was determined by measuring cGMP production using a standard cGMP [^3H] radioimmunoassay.[21,22]
[…] Compounds were added at 100 μM prior to adding the NO donor DEA/NO (30 nM) or clamped NO concentrations. cGMP generation was allowed to proceed for two minutes, after which aliquots were withdrawn and inactivated by boiling in 50 mM Tris, 4 mM EDTA buffer. cGMP formation was measured by a standard radioimmunoassay.

Like-named read-outs stand apart in the source and are kept apart here.

By Hill slope is commonly meant the slope factor of the fitted curve. By IC50 is commonly meant the concentration that gives 50% inhibition. By inhibition is commonly meant the relative decrease from the control value, in per cent. For `O=[N+]([O-])c1ccc2nc(Nc3ccc(O)cc3)c(Nc3ccc(O)cc3)nc2c1` [Compound 10, 4,4′-((6-Nitroquinoxaline-2,3-diyl)bis(azanediyl))diphenol], the Hill slope reads like this: (GC activator cinaciguat 20 nM) 4; (GC activator cinaciguat 1 μM) 4. In addition, the IC50 worked out at 25 ± 4 µM (GC activator cinaciguat 20 nM, no NO, read-out: IC50 (μM) ± SE); 37 ± 40 µM (GC activator cinaciguat 1 μM, no NO, read-out: IC50 (μM) ± SE); 21 ± 3 µM (NO 0.3 nM, GTP 50 μM, read-out: IC50, NO-stimulated cGMP production by isolated sGC); 33 ± 4 µM (NO 0.3 nM, GTP 200 μM, read-out: IC50, NO-stimulated cGMP production by isolated sGC); 33 ± 9 µM (NO 0.3 nM, GTP 1000 μM, read-out: IC50, NO-stimulated cGMP production by isolated sGC); 19 ± 2 µM (NO 10 nM, GTP 50 μM, read-out: IC50, NO-stimulated cGMP production by isolated sGC). The IC50 (NO 10 nM, GTP 200 μM, read-out: IC50, NO-stimulated cGMP production by isolated sGC) was 19 ± 1 µM and the IC50 (NO 10 nM, GTP 1000 μM, read-out: IC50, NO-stimulated cGMP production by isolated sGC) came to 34 ± 2 µM. Also, under “cinaciguat-activated, no NO”, the “inhibition of cGMP production after enzyme activation with cinaciguat (in words)” value was “capable of inhibiting cGMP production”. Also, the inhibition at 100 µM is 99% (read-out: % inhibition of sGC activity at 100 μM compound) and 56.2 ± 22.4% (read-out: sGC activity% inhibition at 100 μM).

Values taken from article PMC4558462, “A new small molecule inhibitor of soluble guanylate cyclase” (Bioorganic & Medicinal Chemistry, 2015).
